Test results from patent publication US9296723B2, “NAMPT inhibitors” (AbbVie Inc., priority 2012, dated 2016).

How the values were obtained:
NAMPT [1] = target: T1, NAMPT (Homo sapiens, UniProt P43490); experiment: TR-FRET Binding Assay of NAMPT with PRPP; conditions: 2 nM NAMPT, 2 nM probe, 200 µM PRPP and 2.5 mM ATP, equilibrated 16 hours
Outline: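 TR-FRET probe displacement with 2 nM NAMPT, 2 nM probe and 1 nM Tb-anti-His antibody in the presence of 200 µM PRPP and 2.5 mM ATP, 2% DMSO (all final). Equilibrated 16 hours before reading to permit possible enzymatic modification of compounds.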

PC3 cells = experiment: NAMPT Cell Proliferation Assay (Cell Titer Glo); type: cell-based; conditions: Homo sapiens, PC-3, 120 h, incubated 5 days, cell viability
Outline: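 PC3 cells (500/well, RPMI with 10% heat-inactivated FBS) were exposed to 10-fold compound dilutions from […] for 5 days at 37 °C, 5% CO2. Viability was read with Cell Titer Glo; IC50 from sigmoidal fit of percent inhibition.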

NAMPT [2] = target: T1, NAMPT; experiment: Time-Resolved Fluorescence Resonance Energy Transfer (TR-FRET) Binding Assay of NAMPT; conditions: 6.8 nM NAMPT, 200 nM probe, equilibrated 3 hours, no substrates
Outline: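 Compound was mixed with enzyme, probe and antibody and equilibrated 3 h at room temperature. TR-FRET read at Ex 337 nm, Em 520/495 nm. Ratios were normalized to controls and fitted to a four-parameter logistic equation for IC50.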

T1 sequence (P43490 whole entry): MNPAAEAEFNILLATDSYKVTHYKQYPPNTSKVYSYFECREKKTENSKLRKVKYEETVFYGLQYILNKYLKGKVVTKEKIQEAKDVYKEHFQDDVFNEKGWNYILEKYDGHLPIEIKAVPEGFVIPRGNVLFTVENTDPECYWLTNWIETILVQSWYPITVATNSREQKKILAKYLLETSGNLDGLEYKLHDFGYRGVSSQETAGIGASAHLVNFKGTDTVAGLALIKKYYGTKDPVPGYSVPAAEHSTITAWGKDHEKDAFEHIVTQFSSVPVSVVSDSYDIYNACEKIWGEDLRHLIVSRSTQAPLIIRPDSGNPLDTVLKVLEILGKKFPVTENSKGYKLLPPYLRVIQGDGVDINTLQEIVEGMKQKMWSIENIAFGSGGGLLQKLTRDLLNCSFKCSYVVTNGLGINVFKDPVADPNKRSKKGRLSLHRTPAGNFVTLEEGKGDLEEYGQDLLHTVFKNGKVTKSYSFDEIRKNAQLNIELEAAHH

Row | SMILES | IC50 (NAMPT [1]) [nM] | IC50 (PC3 cells) [nM] | IC50 (NAMPT [2]) [nM]
1 | O=C(CC1CCCCC1)N1CCC(c2ccc(NC(=O)N3CC(c4cccnc4)C3)cc2)C1 (stereo not drawn) [Example 278, N-{4-[1-(cyclohexylacetyl)pyrrolidin-3-yl]phenyl}-3-(pyridin-3-yl)azetidine-1-carboxamide] | 0.213 | 30.6 | 19.7
2 | CCC(CC)CN1CCC(c2ccc(NC(=O)N3CC(c4cccnc4)C3)cc2)CC1 [Example 237, N-{4-[1-(2-ethylbutyl)piperidin-4-yl]phenyl}-3-(pyridin-3-yl)azetidine-1-carboxamide] | 0.257 | 346 | 581
3 | O=C(CCC(F)(F)F)N1CC=C(c2ccc(NC(=O)N3CC(c4cccnc4)C3)cc2)CC1 [Example 19, 3-(pyridin-3-yl)-N-{4-[1-(4,4,4-trifluorobutanoyl)-1,2,3,6-tetrahydropyridin-4-yl]phenyl}azetidine-1-carboxamide] | 0.86 | 192 | 153
4 | CC1(C(=O)N2CC[C@@H](Oc3ccc(NC(=O)N4CC(c5cccnc5)C4)cc3)C2)CC1 [Example 309, N-[4-({(3R)-1-[(1-methylcyclopropyl)carbonyl]pyrrolidin-3-yl}oxy)phenyl]-3-(pyridin-3-yl)azetidine-1-carboxamide] | 0.262 | 11.1 | 32.8
5 | CCOCCC(=O)N1CC[C@@H](Oc2ccc(NC(=O)N3CC(c4cccnc4)C3)cc2)C1 [Example 314, N-(4-{[(3R)-1-(3-ethoxypropanoyl)pyrrolidin-3-yl]oxy}phenyl)-3-(pyridin-3-yl)azetidine-1-carboxamide] | 0.178 | 83.9 | 110
6 | O=C(CCN1CCCC1)N1CCC(Oc2ccc(NC(=O)N3CC(c4cccnc4)C3)cc2)CC1 [Example 39, 3-(pyridin-3-yl)-N-[4-({1-[3-(pyrrolidin-1-yl)propanoyl]piperidin-4-yl}oxy)phenyl]azetidine-1-carboxamide] | 0.338 | 115 | 90.5
7 | O=C(Nc1ccc(C2CCN(C(=O)c3nccs3)C2)cc1)N1CC(c2cccnc2)C1 (stereo not drawn) [Example 267, 3-(pyridin-3-yl)-N-{4-[1-(1,3-thiazol-2-ylcarbonyl)pyrrolidin-3-yl]phenyl}azetidine-1-carboxamide] | 0.297 | 17.8 | 22.5
8 | CC(C)(O)C(=O)N1CCC(c2ccc(NC(=O)N3CC(c4cccnc4)C3)cc2)C1 (stereo not drawn) [Example 70, N-{4-[1-(2-hydroxy-2-methylpropanoyl)pyrrolidin-3-yl]phenyl}-3-(pyridin-3-yl)azetidine-1-carboxamide] | 0.421 | 73.1 | 92.2
9 | CCOCC(=O)N1CCC(c2ccc(NC(=O)N3CC(c4cccnc4)C3)cc2)C1 (stereo not drawn) [Example 288, N-{4-[1-(ethoxyacetyl)pyrrolidin-3-yl]phenyl}-3-(pyridin-3-yl)azetidine-1-carboxamide] | 0.227 | 84 | 117
10 | COCCOCC(=O)N1CC(c2ccc(NC(=O)N3CC(c4cccnc4)C3)cc2)C1 [Example 210, N-(4-{1-[(2-methoxyethoxy)acetyl]azetidin-3-yl}phenyl)-3-(pyridin-3-yl)azetidine-1-carboxamide] | 0.356 | 218 | 206
11 | COCCOCC(=O)N1CC(Oc2ccc(NC(=O)N3CC(c4cccnc4)C3)cc2)C1 [Example 118, N-[4-({1-[(2-methoxyethoxy)acetyl]azetidin-3-yl}oxy)phenyl]-3-(pyridin-3-yl)azetidine-1-carboxamide] | 0.324 | 77.7 | 36
12 | CC[C@H](C)C(=O)N1CC(Oc2ccc(NC(=O)N3CC(c4cccnc4)C3)cc2)C1 [Example 1, N-[4-({1-[(2S)-2-methylbutanoyl]azetidin-3-yl}oxy)phenyl]-3-(pyridin-3-yl)azetidine-1-carboxamide] | 0.873 | 11.7 | 24.9
13 | CC(=O)N1CCC(C(=O)N2CCC(Oc3ccc(NC(=O)N4CC(c5cccnc5)C4)cc3)CC2)CC1 [Example 34, N-[4-({1-[(1-acetylpiperidin-4-yl)carbonyl]piperidin-4-yl}oxy)phenyl]-3-(pyridin-3-yl)azetidine-1-carboxamide] | 0.264 | 62.4 | 50.7
14 | O=C(Nc1ccc(C2CCN(C(=O)c3ccco3)CC2)cc1)N1CC(c2cccnc2)C1 [Example 190, N-{4-[1-(furan-2-ylcarbonyl)piperidin-4-yl]phenyl}-3-(pyridin-3-yl)azetidine-1-carboxamide] | 0.282 | 5.83 | 2
15 | CC(C)CN1CCC(c2ccc(NC(=O)N3CC(c4cccnc4)C3)cc2)CC1 [Example 235, N-{4-[1-(2-methylpropyl)piperidin-4-yl]phenyl}-3-(pyridin-3-yl)azetidine-1-carboxamide] | 0.213 | 993 | 649
16 | CC(C)(C)OC(=O)N1CC(Oc2ccc(NC(=O)N3CC(c4cccnc4)C3)cc2)C1 [Example 63, tert-butyl 3-[4-({[3-(pyridin-3-yl)azetidin-1-yl]carbonyl}amino)phenoxy]azetidine-1-carboxylate] | 0.39 | 12 | 44.6
17 | COCC(=O)N1CC=C(c2ccc(NC(=O)N3CC(c4cccnc4)C3)cc2)CC1 [Example 20, N-{4-[1-(methoxyacetyl)-1,2,3,6-tetrahydropyridin-4-yl]phenyl}-3-(pyridin-3-yl)azetidine-1-carboxamide] | 0.5 | 123 | 68.4
18 | CCC(C)CC(=O)N1CCC(c2ccc(NC(=O)N3CC(c4cccnc4)C3)cc2)CC1 (stereo not drawn) [Example 167, N-{4-[1-(3-methylpentanoyl)piperidin-4-yl]phenyl}-3-(pyridin-3-yl)azetidine-1-carboxamide] | 0.319 | 23.5 | 8.41
19 | COCCOCC(=O)N1CC=C(c2ccc(NC(=O)N3CC(c4cccnc4)C3)cc2)CC1 [Example 23, N-(4-{1-[(2-methoxyethoxy)acetyl]-1,2,3,6-tetrahydropyridin-4-yl}phenyl)-3-(pyridin-3-yl)azetidine-1-carboxamide] | 0.551 | 195 | 97.8
20 | O=C(Nc1ccc(C2CCN(C(=O)C3CCCCC3)CC2)cc1)N1CC(c2cccnc2)C1 [Example 177, N-{4-[1-(cyclohexylcarbonyl)piperidin-4-yl]phenyl}-3-(pyridin-3-yl)azetidine-1-carboxamide] | 0.304 | 74 | 15.8
21 | O=C(Nc1ccc(C2CN(CC3CC3)C2)cc1)N1CC(c2cccnc2)C1 [Example 248, N-{4-[1-(cyclopropylmethyl)azetidin-3-yl]phenyl}-3-(pyridin-3-yl)azetidine-1-carboxamide] | 0.228 | 1380 | 990
22 | CC1(C(=O)N2CCC(c3ccc(NC(=O)N4CC(c5cccnc5)C4)cc3)CC2)CC1 [Example 193, N-(4-{1-[(1-methylcyclopropyl)carbonyl]piperidin-4-yl}phenyl)-3-(pyridin-3-yl)azetidine-1-carboxamide] | 0.243 | 13.7 | 14.4
23 | CCC(C)CN1CC(c2ccc(NC(=O)N3CC(c4cccnc4)C3)cc2)C1 (stereo not drawn) [Example 255, N-{4-[1-(2-methylbutyl)azetidin-3-yl]phenyl}-3-(pyridin-3-yl)azetidine-1-carboxamide] | 0.173 | 734 | 271
24 | CC(C)(O)C(=O)N1CCC(c2ccc(NC(=O)N3CC(c4cccnc4Cl)C3)cc2)CC1 [Example 161, 3-(2-chloropyridin-3-yl)-N-{4-[1-(2-hydroxy-2-methylpropanoyl)piperidin-4-yl]phenyl}azetidine-1-carboxamide] | 5.79 | 905 | 8.62
25 | CN1CCN(CC(=O)N2CC[C@@H](Oc3ccc(NC(=O)N4CC(c5cccnc5)C4)cc3)C2)CC1 [Example 312, N-[4-({(3R)-1-[(4-methylpiperazin-1-yl)acetyl]pyrrolidin-3-yl}oxy)phenyl]-3-(pyridin-3-yl)azetidine-1-carboxamide] | 0.29 | 211 | 311
26 | CC(C)(C)CCN1CCC(c2ccc(NC(=O)N3CC(c4cccnc4)C3)cc2)CC1 [Example 233, N-{4-[1-(3,3-dimethylbutyl)piperidin-4-yl]phenyl}-3-(pyridin-3-yl)azetidine-1-carboxamide] | 0.335 | 970 | 653
27 | CC(=O)N[C@@H](CC(C)C)C(=O)N1CC[C@@H](Oc2ccc(NC(=O)N3CC(c4cccnc4)C3)cc2)C1 [Example 318, N-(4-{[(3R)-1-(N-acetyl-L-leucyl)pyrrolidin-3-yl]oxy}phenyl)-3-(pyridin-3-yl)azetidine-1-carboxamide] | 0.419 | 156 | 125
28 | Cc1ccsc1C(=O)N1CCC(c2ccc(NC(=O)N3CC(c4cccnc4)C3)cc2)CC1 [Example 186, N-(4-{1-[(3-methylthiophen-2-yl)carbonyl]piperidin-4-yl}phenyl)-3-(pyridin-3-yl)azetidine-1-carboxamide] | 0.345 | 3.45 | 2.93
29 | O=C(Nc1ccc(C2CCN(C(=O)C3CCCC3)CC2)cc1)N1CC(c2cccnc2)C1 [Example 180, N-{4-[1-(cyclopentylcarbonyl)piperidin-4-yl]phenyl}-3-(pyridin-3-yl)azetidine-1-carboxamide] | 0.284 | 67.7 | 21.3
